Measurements as given in patent US9517244B2, “Therapeutic combinations for use in neoplasia” (University of Florida Research Foundation, Inc., priority 2011, dated 2016).
Where two headings read alike, the source gives them in different places. One block for each compound: values may come before it.

Tests used:
colon cancer stem cells = test: cell growth inhibition of colon cancer stem cells; format: cell-based, human; conditions: alone, 1.25 μM, 72 h
Description: (§1) Cells were treated with 1.25 μM of NSC-30049 and 1.25 μM of OPT either alone or in combination for 72 h. Data are mean±SD of triplicate experiments. […] Cells were treated with 1.25 μM of NSC-30049 and 1.25 μM of OPT either alone or in combination for 72 h. Fold change in gene expression values is shown as mean±SD of three experiments and are normalized to GAPDH gene expression.
(§2) The effect of administration of NSC-30049 in combination with oxaliplatin (OPT) was also examined in human parental cancer cells and colon cancer stem cells (FIG. 9A). Cells were treated with 1.25 μM of NSC-30049 and […] of OPT either alone or in combination for 72 h. Cell growth inhibition was assayed. Data presented are mean±SD of triplicate experiments.

LoVo = test: MTT assay, MMR-deficient colon cancer cell line; format: cell-based
Description: (§3) The use of NSC-30049 as a chemopreventive agent for the treatment of colon cancer was also tested. In one experiment, NSC-30049 in combination with temozolomide was administered to colon cancer cell lines, including mismatch repair (MMR) proficient and MMR deficient cancer cell lines (Table 4). MMR proficient colon cancer cell lines tested included HCT-116+ch3, SW480, and HT29. MMR deficient cancer cell lines tested included HCT-116 and LoVo. Cells were pre-treated for 2 h with […] concentrations of NSC-30049 prior to treatment with temozolomide. After the treatment cells were allowed to grow for 72 hours. The cell growth inhibition was determined by MTT assay. Data presented are the mean±SE of three different estimations. The p value as compared to control of the Student's t-test is given in parenthesis. * p<0.05; ** p<0.01; *** p<0.001. Increasing the concentration of NSC-30049 decreased the IC50 of temozolomide for all cell lines tested, regardless of whether they were MMR proficient or deficient.
(§4) In addition to temozolomide, oxaliplatin is another chemotherapeutic agent used for the treatment of colon cancer. In another experiment, NSC-30049 in combination with oxaliplatin was administered to colon cancer cell lines, including mismatch repair (MMR) proficient and MMR deficient cancer cell lines (Table 5). MMR proficient colon cancer cell lines tested included HCT-116+ch3 and HT29. MMR deficient cancer cell lines tested included HCT-116 and LoVo. Cells were pre-treated with the indicated concentrations of NSC-33049 for 2 h followed by the treatment with different concentrations of oxaliplatin for additional 48 h. The cell growth inhibition was determined by MTT assay. Data presented are the mean±SE of three different estimations. The p value of Student's t-test as compared to the control is given in parenthesis (* p<0.05; ** p<0.01; *** p<0.001). Increasing the concentration of NSC-30049 decreased the IC50 of oxaliplatin for all cell lines tested, regardless of whether they were MMR proficient or deficient.

HCT-116 = test: MTT assay, MMR-deficient colon cancer cell line; format: cell-based
Description: as §3, §4

BxPC3 = test: MTT assay, pancreatic cancer cell line; format: cell-based, human; conditions: BxPC3, 48 h, read-out: IC50 of Oxaliplatin
PANC1 = test: MTT assay, pancreatic cancer cell line; format: cell-based, human; conditions: PANC1, 48 h, read-out: IC50 of Oxaliplatin
HT29 = test: MTT assay, MMR-proficient colon cancer cell line; format: cell-based
Description: as §3, §4

HCT-116 + ch3 = test: MTT assay, MMR-proficient colon cancer cell line; format: cell-based
Description: as §3, §4

[1] = tested on: human parental cancer cells; test: cell growth inhibition of parental cancer cells; format: cell-based; conditions: alone, 1.25 μM, 72 h
Description: as §1, §2

SW480 = test: MTT assay, MMR-proficient colon cancer cell line; format: cell-based; conditions: Homo sapiens, SW480, 72 h, read-out: IC50 of TMZ
Description: as §3

U87MG = test: MTT assay, brain cancer cell line; format: cell-based; conditions: Homo sapiens, U-87 MG, 120 h, read-out: IC50 of TMZ
Description: (§5) The use of NSC-30049 as a chemopreventive agent for the treatment of brain cancer was also tested. NSC-30049 in combination with temozolomide was administered to brain cancer cell lines, including U118, U138, U87MG, A172, and T98 cell lines (Table 6). Cells were pretreated with the indicated concentrations of NSC-30049 followed by TMZ for 120 h. After treatment, cells were processed for the determination of viability by cell proliferation assay (MTT assay). The data from the graph was used for the determination of IC50, which is presented as the mean±SE of three different estimations. Increasing the concentration of NSC-30049 decreased the IC50 of temozolomide for all cell lines tested, regardless of whether they were MMR proficient or deficient.

U138 = test: MTT assay, brain cancer cell line; format: cell-based; conditions: 120 h, read-out: IC50 of TMZ
Description: as §5

A172 = test: MTT assay, brain cancer cell line; format: cell-based; conditions: Homo sapiens, A 172, 120 h, read-out: IC50 of TMZ
Description: as §5

T98 = test: MTT assay, brain cancer cell line; format: cell-based; conditions: Homo sapiens, T98, 120 h, read-out: IC50 of TMZ
Description: as §5

U118 = test: MTT assay, brain cancer cell line; format: cell-based; conditions: 120 h, read-out: IC50 of TMZ
Description: as §5

[2] = NSC-30049 0 μM, 48 h, read-out: IC50 of oxaliplatin
[3] = NSC-30049 1.0 μM, 48 h, read-out: IC50 of oxaliplatin
[4] = NSC-30049 2.5 μM, 48 h, read-out: IC50 of oxaliplatin
[5] = NSC-30049 5.0 μM, 48 h, read-out: IC50 of oxaliplatin
[6] = Homo sapiens, HCT-116, 72 h, NSC-30049 0 μM, 72 h, read-out: IC50 of TMZ
[7] = Homo sapiens, HCT-116, 72 h, NSC-30049 0.5 μM, 72 h, read-out: IC50 of TMZ
[8] = Homo sapiens, HCT-116, 72 h, NSC-30049 1.0 μM, 72 h, read-out: IC50 of TMZ
[9] = Homo sapiens, HCT-116, 72 h, NSC-30049 2.5 μM, 72 h, read-out: IC50 of TMZ

SMILES: O=C1[O][Pt]2([NH][C@@H]3CCCC[C@H]3[NH]2)[O]C1=O [Oxaliplatin, oxaliplatin]
- inhibition of growth (colon cancer stem cells): ~40%
- IC50 (LoVo; [2]): 0.75 ± 0.02 µM
- IC50 (LoVo; NSC-30049 0.5 μM, 48 h, read-out: IC50 of oxaliplatin): 0.59 ± 0.04 µM
- IC50 (LoVo; [3]): 0.07 ± 0.02 µM
- IC50 (LoVo; [4]): 0.03 µM
- IC50 (HCT-116; [2]): 1.5 ± 0.01 µM
- IC50 (HCT-116; [3]): 0.78 ± 0.02 µM
- IC50 (HCT-116; [4]): 0.03 µM
- IC50 (HCT-116; [5]): 0.02 µM
- IC50 (BxPC3; NSC-30049 0 μM): 2 ± 0.4 µM
- IC50 (BxPC3; NSC-30049 0.5 μM): 0.71 ± 0.39 µM
- IC50 (BxPC3; NSC-30049 1.0 μM): 0.33 ± 0.06 µM
- IC50 (BxPC3; NSC-30049 2.5 μM): 0.01 µM
- IC50 (PANC1; NSC-30049 0 μM): 14.5 ± 0.38 µM
- IC50 (PANC1; NSC-30049 0.5 μM): 0.38 ± 0.06 µM
- IC50 (PANC1; NSC-30049 1.0 μM): 0.13 ± 0.04 µM
- IC50 (PANC1; NSC-30049 2.5 μM): 0.37 ± 0.22 µM
- IC50 (HT29; [2]): 0.92 ± 0.03 µM
- IC50 (HT29; [3]): 0.82 ± 0.06 µM
- IC50 (HT29; [4]): 0.59 ± 0.02 µM
- IC50 (HT29; [5]): 0.03 µM
- IC50 (HCT-116 + ch3; [2]): 5.83 ± 0.36 µM
- IC50 (HCT-116 + ch3; [3]): 4.98 ± 0.17 µM
- IC50 (HCT-116 + ch3; [4]): 0.91 ± 0.12 µM
- IC50 (HCT-116 + ch3; [5]): 0.03 µM
- inhibition of growth [1]: ~65%

- IC50 (LoVo; Homo sapiens, 72 h, NSC-30049 0 μM, 72 h, read-out: IC50 of TMZ): 1106 ± 0.02 µM
- IC50 (LoVo; Homo sapiens, 72 h, NSC-30049 0.5 μM, 72 h, read-out: IC50 of TMZ): 366 ± 6 µM
- IC50 (LoVo; Homo sapiens, 72 h, NSC-30049 1.0 μM, 72 h, read-out: IC50 of TMZ): 8 ± 0.8 µM
- IC50 (LoVo; Homo sapiens, 72 h, NSC-30049 2.5 μM, 72 h, read-out: IC50 of TMZ): 3.82 ± 0.09 µM
- IC50 (HCT-116; [6]): 620 ± 11 µM
- IC50 (HCT-116; [7]): 361 ± 10 µM
- IC50 (HCT-116; [8]): 160 ± 63 µM
- IC50 (HCT-116; [9]): 3.81 ± 0.11 µM
- IC50 (SW480; NSC-30049 0 μM): 377 ± 12 µM
- IC50 (SW480; NSC-30049 0.5 μM): 325 ± 18 µM
- IC50 (SW480; NSC-30049 1.0 μM): 167 ± 49 µM
- IC50 (SW480; NSC-30049 2.5 μM): 0.47 ± 0.03 µM
- IC50 (U87MG; NSC-30049 0 μM): 493 ± 83.9 µM
- IC50 (U87MG; NSC-30049 1.0 μM): 33 ± 5.1 µM
- IC50 (U87MG; NSC-30049 2.5 μM): 19.9 ± 10.5 µM
- IC50 (U87MG; NSC-30049 5.0 μM): 13.7 ± 8.5 µM
- IC50 (U138; NSC-30049 0 μM): 432 ± 19.1 µM
- IC50 (U138; NSC-30049 1.0 μM): 278 ± 14.6 µM
- IC50 (U138; NSC-30049 2.5 μM): 3.8 ± 0.4 µM
- IC50 (U138; NSC-30049 5.0 μM): 0.8 ± 0.02 µM
- IC50 (A172; NSC-30049 0 μM): 154 ± 6.8 µM
- IC50 (A172; NSC-30049 1.0 μM): 89.5 ± 7.8 µM
- IC50 (A172; NSC-30049 2.5 μM): 82.9 ± 5.1 µM
- IC50 (A172; NSC-30049 5.0 μM): 75.1 ± 5.2 µM
- IC50 (T98; NSC-30049 0 μM): 554 ± 53.9 µM
- IC50 (T98; NSC-30049 1.0 μM): 511 ± 14.7 µM
- IC50 (T98; NSC-30049 2.5 μM): 382 ± 5.9 µM
- IC50 (T98; NSC-30049 5.0 μM): 245 ± 8.7 µM
- IC50 (U118; NSC-30049 0 μM): 136 ± 3.7 µM
- IC50 (U118; NSC-30049 1.0 μM): 78.4 ± 1.3 µM
- IC50 (U118; NSC-30049 2.5 μM): 14.5 ± 2.5 µM
- IC50 (U118; NSC-30049 5.0 μM): 1.1 ± 3 µM
- IC50 (HT29; Homo sapiens, HT-29, 72 h, NSC-30049 0 μM, 72 h, read-out: IC50 of TMZ): 1450 ± 144 µM
- IC50 (HT29; Homo sapiens, HT-29, 72 h, NSC-30049 0.5 μM, 72 h, read-out: IC50 of TMZ): 1270 ± 60 µM
- IC50 (HT29; Homo sapiens, HT-29, 72 h, NSC-30049 1.0 μM, 72 h, read-out: IC50 of TMZ): 815 ± 93 µM
- IC50 (HT29; Homo sapiens, HT-29, 72 h, NSC-30049 2.5 μM, 72 h, read-out: IC50 of TMZ): 248 ± 59 µM
- IC50 (HT29; Homo sapiens, HT-29, 72 h, NSC-30049 5.0 μM, 72 h, read-out: IC50 of TMZ): 5.33 ± 0.07 µM
- IC50 (HCT-116 + ch3; [6]): 236 ± 23 µM
- IC50 (HCT-116 + ch3; [7]): 206 ± 13 µM
- IC50 (HCT-116 + ch3; [8]): 153 ± 10 µM
- IC50 (HCT-116 + ch3; [9]): 0.73 ± 0.04 µM
- IC50 (HCT-116 + ch3; Homo sapiens, HCT-116, 72 h, NSC-30049 5.0 μM, 72 h, read-out: IC50 of TMZ): 0.35 ± 0.01 µM
SMILES: Cn1nnc2c(C(N)=O)ncn2c1=O [TMZ, Temozolomide]
